Laboratory results from patent EP1082319B1, “BENZOCARBAZOLE AND INDENOINDOLE DERIVED ESTROGENIC AGENTS” (Wyeth, priority 1998, dated 1999).

Legend:
estrogen receptor = biological target: T1, estrogen receptor (Homo sapiens, UniProt P03372); test: In vitro estrogen receptor binding assay (competition with [3H]-17β-estradiol, cytosol of CHO cells overexpressing the receptor); details: for binding to the ER receptor, comparison in words: compared with the indenoindole Example 4, from Table 2; for IC50: read-out: Receptor Binding IC50's
T1 construct: expressed in transfected cells; host or cells: CHO cells (ribosome-free cytosol)
T1 sequence (P03372 1-595): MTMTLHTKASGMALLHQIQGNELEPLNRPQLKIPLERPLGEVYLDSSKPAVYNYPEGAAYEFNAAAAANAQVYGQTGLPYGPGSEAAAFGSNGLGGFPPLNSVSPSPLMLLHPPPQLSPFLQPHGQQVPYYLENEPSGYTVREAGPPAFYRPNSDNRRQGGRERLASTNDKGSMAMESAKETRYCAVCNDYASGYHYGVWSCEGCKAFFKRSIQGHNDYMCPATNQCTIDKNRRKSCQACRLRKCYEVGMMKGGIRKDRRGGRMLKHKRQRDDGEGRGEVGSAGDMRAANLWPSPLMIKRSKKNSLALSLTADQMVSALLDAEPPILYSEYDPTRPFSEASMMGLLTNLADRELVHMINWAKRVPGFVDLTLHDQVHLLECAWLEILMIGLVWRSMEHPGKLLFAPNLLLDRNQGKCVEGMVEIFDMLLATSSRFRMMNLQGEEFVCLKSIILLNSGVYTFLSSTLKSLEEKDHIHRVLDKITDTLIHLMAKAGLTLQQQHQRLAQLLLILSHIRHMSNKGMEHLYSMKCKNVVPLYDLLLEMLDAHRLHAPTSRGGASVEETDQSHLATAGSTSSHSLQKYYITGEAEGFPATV
Method: The plates were washed twice with PBS and once with 10 mM Tris-HCl, pH 7.4, 1 mM EDTA. Cells were harvested by scraping the surface and then the cell suspension was placed on ice. Cells were disrupted with a hand-held motorized tissue grinder using two, 10-second bursts. The crude preparation was centrifuged at 12,000g for 20 minutes followed by a 60 minute spin at 100,000g to produce a ribosome free cytosol. The cytosol was then frozen and stored at -80°C. Protein concentration of the cytosol was estimated using the BCA assay with reference standard protein. […] The plate was incubated at room temperature for 2.5 h. At the end of this incubation period 150 uL of ice-cold dextran coated charcoal (5% activated charcoal coated with 0.05% […] dextran) was added to each well and the plate was immediately centrifuged at 99g for 5 minutes at 4°C. 200 uL of the supernatant solution was then removed for scintillation counting. […] Also, wells containing radioactivity but no cytosol were processed with charcoal to estimate unremovable DPM of [^3H] 17β-estradiol. Counts per minute (CPM) of radioactivity were automatically converted to disintegrated per minute (DPM) by the Beckman LS 7500 Scintillation Counter using a set of quenched standards to generate a H# for each sample. […]

human estrogen receptor = biological target: T2, human estrogen receptor (Homo sapiens, UniProt P03372); test: 2X VIT ERE infection luciferase assay in CHO cells stably transfected with the human estrogen receptor; type: cell-based; details: for Infection Luciferase Activity, 1 uM + 17β estradiol: 1 uM compound + 1 nM 17β-estradiol, 24 h (tests for estrogen antagonism), percentage of activity as compared to 17β-estradiol; for Infection Luciferase Activity, 1 uM: 1 uM compound alone, 24 h, percentage of activity as compared to 17β-estradiol (agonism)
T2 construct: expressed in transfected cells
Method: Chinese Hamster Ovary cells (CHO) which had been stably transfected with the human estrogen receptor were maintained in DMEM + 10% fetal bovine serum (FBS). 48h prior to treatment the growth medium was replaced with DMEM lacking phenol red + 10% dextran coated charcoal stripped FBS (treatment medium). Cells were plated at a density of 5000 cells/well in 96-well plates containing 200 µL of medium/well.
Reporter DNA (Promega plasmid pGL2 containing two tandem copies of the vitellogenin ERE in front of the minimal thymidine kinase promoter driving the luciferase gene) was combined with the B-galactosidase expression plasmid pCH110 (Pharmacia) and carrier DNA (pTZ18U) in the following ratio: • 10uG of reporter DNA • 5uG of pCH110DNA • 5 uG of pTZ18U • 20 uG of DNA/1 mL of transfection solution
The DNA (20uG) was dissolved in 500 uL of 250 mM sterile CaCl2 and added dropwise to 500 uL of 2 X HeBS (0.28 M NaCl, 50 mM HEPES, 1.5 mM Na2HPO4, pH 7.05) and incubated at room temperature for 20 minutes. 20 uL of this mixture was added to each well of cells and remained on the cells for 16 h. […] Each treatment condition was performed on 8 wells (n=8) which were incubated for 24 h prior to the luciferase assay.
After 24h exposure to compounds, the media was removed and each well washed 2X with 125 uL of PBS lacking Mg^++ and Ca^++. After removing the PBS, 25 uL of Promega lysis buffer was added to each well and allowed to stand at room temperature for 15 min, followed by 15 min at -80°C and 15 min at 37°C. 20 uL of lysate was transferred to an opaque 96 well plate for luciferase activity evaluation and the remaining lysate (5 uL) was used for the B-galactosidase activity evaluation (normalize transfection). The luciferan substrate (Promega) was added in 100 uL aliquots to each well automatically by the luminometer and the light produced (relative light units) was read 10 seconds after addition.
To the remaining 5 uL of lysate 45 uL of PBS was added. Then 50 uL of Promega B-galactosidase 2X assay buffer was added, mixed well and incubated at 37°C for 1 hour. A plate containing a standard curve (0.1 to 1.5 milliunits in triplicate) was set up for each experimental run. The plates were analyzed on a Molecular Devices spectrophotometric plate reader at 410 nm. The optical densities for the unknown were converted to milliunits of activity by mathematical extrapolation from the standard curve.
The luciferase data was generated as relative light units (RLUs) accumulated during a 10 second measurement and automatically transferred to a JMP (SAS Inc) file where background RLUs were subtracted. The B-galactosidase values were automatically imported into the file and these values were divided into the RLUs to normalize the data. The mean and standard deviations were determined from a n=8 for each treatment.

SMILES | binding to the ER receptor, comparison in words (estrogen receptor) | IC50 (estrogen receptor) [nM] | Infection Luciferase Activity, 1 uM + 17β estradiol (human estrogen receptor) [%] | Infection Luciferase Activity, 1 uM (human estrogen receptor) [%]
COc1ccc2c(c1)CCc1c-2n(Cc2ccc(OCCN3CCCCCC3)cc2)c2ccc(O)cc12 [Example 14] | bind better to the ER receptor than the indenoindole Example 4 | 190 | 8 | 1
COc1ccc2c(c1)CCc1c-2n(Cc2ccc(OCCN3CCCCC3)cc2)c2ccc(O)cc12 [Example 13, 3-Methoxy-11-[4-(2-piperidin-1-yl-ethoxy)-benzyl]-5,11-dihydro-6H-benzo[a]carbazol-8-ol] | bind better to the ER receptor than the indenoindole Example 4 | 110 | 1 | -7
COc1ccc2c(c1)Cc1c-2n(Cc2ccc(OCCN3CCCCC3)cc2)c2ccc(O)cc12 [Example 4, 2-Methoxy-5-[4-(2-piperidin-1-yl-ethoxy)-benzyl]-5,10-dihydro-indeno[1,2-b]indol-8ol] | – | 430 | 83 | -2
